Measured values from patent US20230271954A1 (Gossamer Bio Services, Inc., priority 2020, published 2023).

Tests used:
DGKα = DGKα (Homo sapiens, UniProt P23743); assay: DGKα biochemical assay (ADP-Glo); conditions: read-out: DGK α IC50
In short: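 ADP-Glo kinase assay using OAG/PS (1:2) lipid substrate, sonicated, in HEPES pH 7.0 buffer with MgCl2, CaCl2, DTT, BSA, Triton X-100. Enzyme preincubated with compound 30 min at RT; substrate with ATP (DGKα: 400 μM) added, 45 min RT. Luminescence read; % inhibition vs DMSO and no-enzyme controls.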

DGKζ = target: T1, DGKζ (Homo sapiens, UniProt Q13574); assay: DGKζ biochemical assay (ADP-Glo); conditions: read-out: DGK ζ IC50
T1 construct: purchased Carna 12-110
T1 sequence (Q13574 1-929 isoform Q13574-4): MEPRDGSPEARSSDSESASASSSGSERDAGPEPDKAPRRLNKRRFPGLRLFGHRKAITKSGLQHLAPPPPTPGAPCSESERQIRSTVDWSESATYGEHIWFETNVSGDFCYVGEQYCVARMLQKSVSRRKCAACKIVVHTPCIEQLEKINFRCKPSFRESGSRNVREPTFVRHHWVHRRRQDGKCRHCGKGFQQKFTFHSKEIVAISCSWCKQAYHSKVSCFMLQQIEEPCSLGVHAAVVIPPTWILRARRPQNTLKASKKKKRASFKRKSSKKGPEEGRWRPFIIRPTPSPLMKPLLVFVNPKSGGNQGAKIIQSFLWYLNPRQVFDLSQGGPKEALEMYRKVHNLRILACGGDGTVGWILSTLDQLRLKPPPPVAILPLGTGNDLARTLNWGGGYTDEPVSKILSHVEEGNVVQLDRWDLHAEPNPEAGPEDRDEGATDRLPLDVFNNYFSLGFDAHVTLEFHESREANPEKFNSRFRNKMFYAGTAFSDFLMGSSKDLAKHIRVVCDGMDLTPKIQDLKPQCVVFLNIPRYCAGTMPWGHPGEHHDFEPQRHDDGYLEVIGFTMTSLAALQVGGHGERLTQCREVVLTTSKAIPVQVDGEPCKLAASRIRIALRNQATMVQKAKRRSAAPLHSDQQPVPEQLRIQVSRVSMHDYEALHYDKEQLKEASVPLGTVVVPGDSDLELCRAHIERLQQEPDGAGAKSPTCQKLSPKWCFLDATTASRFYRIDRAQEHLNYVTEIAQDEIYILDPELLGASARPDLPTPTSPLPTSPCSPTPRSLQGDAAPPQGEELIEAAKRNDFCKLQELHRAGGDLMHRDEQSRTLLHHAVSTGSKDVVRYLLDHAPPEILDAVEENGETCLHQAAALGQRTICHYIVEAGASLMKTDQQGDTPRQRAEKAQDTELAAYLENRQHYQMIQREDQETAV

Sequence of DGKα (P23743 whole entry): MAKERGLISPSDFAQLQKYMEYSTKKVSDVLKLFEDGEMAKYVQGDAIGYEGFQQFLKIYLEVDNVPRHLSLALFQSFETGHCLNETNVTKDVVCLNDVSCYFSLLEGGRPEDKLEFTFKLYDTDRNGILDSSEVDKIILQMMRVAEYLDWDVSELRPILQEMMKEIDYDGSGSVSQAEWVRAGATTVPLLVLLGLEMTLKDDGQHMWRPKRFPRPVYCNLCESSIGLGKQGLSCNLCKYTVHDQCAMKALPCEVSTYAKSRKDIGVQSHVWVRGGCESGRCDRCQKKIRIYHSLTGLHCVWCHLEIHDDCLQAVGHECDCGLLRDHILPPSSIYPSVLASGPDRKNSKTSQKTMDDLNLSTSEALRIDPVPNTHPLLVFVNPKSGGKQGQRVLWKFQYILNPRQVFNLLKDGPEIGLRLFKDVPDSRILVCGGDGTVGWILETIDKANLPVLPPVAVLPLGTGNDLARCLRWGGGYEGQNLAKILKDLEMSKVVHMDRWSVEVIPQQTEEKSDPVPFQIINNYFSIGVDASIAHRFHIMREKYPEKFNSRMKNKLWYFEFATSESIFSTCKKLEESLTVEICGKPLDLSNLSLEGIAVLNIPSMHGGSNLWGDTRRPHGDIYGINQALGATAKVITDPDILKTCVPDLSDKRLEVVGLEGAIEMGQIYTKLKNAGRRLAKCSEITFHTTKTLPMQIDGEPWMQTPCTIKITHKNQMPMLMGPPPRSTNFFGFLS

| IC50 (DGKα) [µM] | IC50 (DGKζ) [µM] | Compound |
| --- | --- | --- |
| ≥ 1 | ≥ 1 | Cc1cc2c(cc1N(CC1CCC1)[C@H]1CC[C@H](N(C)c3c(C#N)c(=O)n(C)c4ccc(Cl)nc34)CC1)OCO2 [Example 145, trans-6-chloro-4-((4-((cyclobutylmethyl)(6-methylbenzo[d][1,3]dioxol-5-yl)amino)cyclohexyl) (methyl)amino)-1-methyl-2-oxo-1,2-dihydro-1,5-naphthyridine-3-carbonitrile] |
| 0.01 to 0.1 | 0.1 to 1 | Cn1c(=O)c(C#N)c(N(C)[C@H]2CC[C@@H](N(CC3CCOCC3)c3ccc(F)cc3)CC2)c2nc(C#N)ccc21 [Example 53, cis-8-((-4-((4-fluorophenyl)((tetrahydro-2H-pyran-4-yl)methyl)amino)cyclohexyl)(methyl)amino)-5-methyl-6-oxo-5,6-dihydro-1,5-naphthyridine-2,7-dicarbonitrile] |
| 0.01 to 0.1 | 0.1 to 1 | Cn1c(=O)c(C#N)c(N(C)[C@H]2CC[C@@H](N(C[C@@H]3CCOC3)c3ccc(F)cc3)CC2)c2nc(C#N)ccc21 [Example 67] |
| 0.01 to 0.1 | 0.01 to 0.1 | Cn1c(=O)c(C#N)c(N(C)[C@H]2CC[C@@H](N(C[C@@H]3CCCOC3)c3ccc(F)cc3)CC2)c2nc(C#N)ccc21 [Example 69] |
| 0.01 to 0.1 | 0.1 to 1 | Cn1c(=O)cc(N(C)[C@H]2CC[C@@H](N(CC3COCCO3)c3ccc4c(c3)OCO4)CC2)c2nc(C#N)ccc21 (stereo partly drawn) [Example 181, cis-8-((4-(((1,4-dioxan-2-yl)methyl)(benzo[d][1,3]dioxol-5-yl)amino)cyclohexyl)(methyl)amino)-5-methyl-6-oxo-5,6-dihydro-1,5-naphthyridine-2-carbonitrile] |
| ≥ 1 | ≥ 1 | Cn1c(=O)c(C#N)c(N(C)[C@H]2CC[C@H](N(CC3CCC3)c3ccc(F)cc3CO)CC2)c2nc(Cl)ccc21 [Example 154, trans-6-chloro-4-((4-((cyclobutylmethyl)(4-fluoro-2-(hydroxymethyl)phenyl)amino)cyclohexyl)(methyl)amino)-1-methyl-2-oxo-1,2-dihydro-1,5-naphthyridine-3-carbonitrile] |
| ≥ 1 | ≥ 1 | CC(C)CN(c1ccc(F)cc1)[C@H]1CC[C@H](N(C)c2cc(=O)n(C)c3ccc(C#N)nc23)CC1 [Example 41, trans-8-((-4-((4-fluorophenyl)(isobutyl)amino)cyclohexyl)(methyl)amino)-5-methyl-6-oxo-5,6-dihydro-1,5-naphthyridine-2-carbonitrile] |
| ≥ 1 | ≥ 1 | Cc1cc2c(cc1N(CC1CCC1)[C@H]1CC[C@@H](N(C)c3c(C#N)c(=O)n(C)c4ccc(Cl)nc34)CC1)OCO2 [Example 151, cis-6-chloro-4-((4-((cyclobutylmethyl)(6-methylbenzo[d][1,3]dioxol-5-yl)amino)cyclohexyl) (methyl)amino)-1-methyl-2-oxo-1,2-dihydro-1,5-naphthyridine-3-carbonitrile] |
| < 0.01 | ≥ 1 | Cc1ccc(N(CC2CCC2)[C@H]2CC[C@@H](N(C)c3cc(=O)n(C)c4ccc(C#N)nc34)CC2)cc1 [Example 100] |
| 0.01 to 0.1 | 0.1 to 1 | Cc1cc(N(CC2CCC2)[C@H]2CC[C@@H](N(C)c3cc(=O)n(C)c4ccc(C#N)nc34)CC2)ccc1F [Example 92] |
| 0.01 to 0.1 | 0.01 to 0.1 | Cn1c(=O)c(C#N)c(N(C)[C@H]2CC[C@@H](N(CC3CCC3)c3ccc4c(c3)OCCO4)CC2)c2nc(C#N)ccc21 [Example 170, cis-8-((4-((cyclobutylmethyl)(2,3-dihydrobenzo[b] [1,4]dioxin-6-yl)amino)cyclohexyl)(methyl)amino)-5-methyl-6-oxo-5,6-dihydro-1,5-naphthyridine-2,7-dicarbonitrile] |
| 0.01 to 0.1 | ≥ 1 | Cc1cc(F)cc(N(CC2CCC2)[C@H]2CC[C@@H](N(C)c3cc(=O)n(C)c4ccc(C#N)nc34)CC2)c1 [Example 114, cis-8-((-4-((cyclobutylmethyl)(3-fluoro-5-methylphenyl)amino)cyclohexyl)(methyl)amino)-5-methyl-6-oxo-5,6-dihydro-1,5-naphthyridine-2-carbonitrile] |
| 0.1 to 1 | 0.1 to 1 | Cc1cc(F)ccc1N(CC1CCC1)[C@H]1CC[C@H](N(C)c2c(C#N)c(=O)n(C)c3ccc(C#N)nc23)CC1 [Example 106, trans-8-((4-((cyclobutylmethyl)(4-fluoro-2-methylphenyl)amino)cyclohexyl)(methyl)amino)-5-methyl-6-oxo-5,6-dihydro-1,5-naphthyridine-2,7-dicarbonitrile] |
| 0.1 to 1 | ≥ 1 | Cn1c(=O)c(C#N)c(N(C)[C@H]2CC[C@H](N(CC3CCCOC3)c3ccc(F)cc3)CC2)c2nc(C#N)ccc21 (relative stereo) [Example 58, trans-8-((4-((4-fluorophenyl)((tetrahydro-2H-pyran-3-yl)methyl)amino)cyclohexyl)(methyl)amino)-5-methyl-6-oxo-5,6-dihydro-1,5-naphthyridine-2,7-dicarbonitrile] |
| 0.1 to 1 | 0.1 to 1 | Cc1cc(F)ccc1N(CC1COCCO1)[C@H]1CC[C@H](N(C)c2c(C#N)c(=O)n(C)c3ccc(C#N)nc23)CC1 (stereo partly drawn) [Example 173, trans-8-((4-(((1,4-dioxan-2-yl)methyl)(4-fluoro-2-methylphenyl)amino)cyclohexyl)(methyl)amino)-5-methyl-6-oxo-5,6-dihydro-1,5-naphthyridine-2,7-dicarbonitrile] |
| 0.01 to 0.1 | 0.1 to 1 | Cn1c(=O)c(C#N)c(N(C)[C@H]2CC[C@H](N(c3ccc(F)cc3)C3CC3)CC2)c2nc(Cl)ccc21 [Example 3F, trans-6-chloro-4-((4-(cyclopropyl(4-fluorophenyl)amino)cyclohexyl) (methyl)amino)-1-methyl-2-oxo-1,2-dihydro-1,5-naphthyridine-3-carbonitrile] |
| ≥ 1 | 0.01 to 0.1 | Cc1cc(F)ccc1N(CC1CC1)[C@H]1CC[C@@H](N(C)c2c(C#N)c(=O)n(C)c3ccc(C#N)nc23)CC1 [Example 119, cis-8-((4-((cyclopropylmethyl)(4-fluoro-2-methylphenyl)amino)cyclohexyl)(methyl)amino)-5-methyl-6-oxo-5,6-dihydro-1,5-naphthyridine-2,7-dicarbonitrile] |
| 0.01 to 0.1 | ≥ 1 | COc1cccc(N(CC2CC2)[C@H]2CC[C@H](N(C)c3c(C#N)c(=O)n(C)c4cccnc34)CC2)c1 [Example 13, trans-4-((4-((cyclopropylmethyl)(3-methoxyphenyl)amino)cyclohexyl)(methyl)amino)-1-methyl-2-oxo-1,2-dihydro-1,5-naphthyridine-3-carbonitrile] |
| 0.1 to 1 | 0.01 to 0.1 | Cc1cc(F)ncc1N(CC1CCC1)[C@H]1CC[C@H](N(C)c2c(C#N)c(=O)n(C)c3ccc(C#N)nc23)CC1 [Example 140, trans-8-((-4-((cyclobutylmethyl)(6-fluoro-4-methylpyridin-3-yl)amino)cyclohexyl)(methyl)amino)-5-methyl-6-oxo-5,6-dihydro-1,5-naphthyridine-2,7-dicarbonitrile] |
| 0.01 to 0.1 | 0.1 to 1 | Cn1c(=O)c(C#N)c(N(C)[C@H]2CC[C@H](N(CC3CC3)c3cccc(F)c3)CC2)c2nc(Cl)ccc21 [Example 23, trans-6-chloro-4-((4-((cyclopropylmethyl)(3-fluorophenyl)amino)cyclohexyl)(methyl)amino)-1-methyl-2-oxo-1,2-dihydro-1,5-naphthyridine-3-carbonitrile] |
| < 0.01 | 0.1 to 1 | Cn1c(=O)c(C#N)c(N(C)[C@H]2CC[C@@H](N(c3ccc(F)cc3)C3CCC3)CC2)c2nc(Cl)ccc21 [Example 10, cis-6-chloro-4-((4-(cyclobutyl(4-fluorophenyl)amino)cyclohexyl)(methyl)amino)-1-methyl-2-oxo-1,2-dihydro-1,5-naphthyridine-3-carbonitrile] |
| ≥ 1 | 0.01 to 0.1 | COc1cc(N(CC2CC2)[C@H]2CC[C@@H](N(C)c3c(C#N)c(=O)n(C)c4ccc(C#N)nc34)CC2)cc(OC)c1F [Example 101] |
| ≥ 1 | ≥ 1 | Cn1c(=O)c(C#N)c(N(C)[C@H]2CC[C@@H](N(CC3CC3)c3cccc(F)c3)CC2)c2nc(Cl)ccc21 [Example 22, cis-6-chloro-4-((4-((cyclopropylmethyl)(3-fluorophenyl)amino)cyclohexyl)(methyl)amino)-1-methyl-2-oxo-1,2-dihydro-1,5-naphthyridine-3-carbonitrile] |
| ≥ 1 | 0.1 to 1 | Cc1c(F)cccc1N(CC1CC1)[C@H]1CC[C@H](N(C)c2c(C#N)c(=O)n(C)c3ccc(C#N)nc23)CC1 [Example 107, trans-8-((4-((cyclopropylmethyl)(3-fluoro-2-methylphenyl)amino)cyclohexyl)(methyl)amino)-5-methyl-6-oxo-5,6-dihydro-1,5-naphthyridine-2,7-dicarbonitrile] |
| 0.1 to 1 | 0.1 to 1 | Cn1c(=O)cc(N(C)[C@H]2CC[C@@H](N(CC3COCCO3)c3ccc(F)c(OC(F)F)c3)CC2)c2nc(C#N)ccc21 (stereo partly drawn) [Example 188, cis-8-((-4-(((1,4-dioxan-2-yl)methyl)(3-(difluoromethoxy)-4-fluorophenyl)amino)cyclohexyl) (methyl)amino)-5-methyl-6-oxo-5,6-dihydro-1,5-naphthyridine-2-carbonitrile] |
| < 0.01 | 0.01 to 0.1 | Cn1c(=O)c(C#N)c(N(C)[C@H]2CC[C@H](N(CC3CCC3)c3cccc4c3OCO4)CC2)c2nc(Cl)ccc21 [Example 132, trans-4-((-4-(benzo[d][1,3]dioxol-4-yl(cyclobutylmethyl)amino)cyclohexyl)(methyl)amino)-6-chloro-1-methyl-2-oxo-1,2-dihydro-1,5-naphthyridine-3-carbonitrile] |
| 0.01 to 0.1 | ≥ 1 | Cn1c(=O)cc(N(C)[C@H]2CC[C@@H](N(CC3CC3)c3ccc4c(c3)OCO4)CC2)c2nc(C#N)ccc21 [Example 75] |
